One experiment addresses human orexin 1 receptor (Homo sapiens (Human), UniProt O43613). Briefly: Human orexin 1 receptor radioligand binding ([3H]-SB674042 competition). To be noted: CHO cells stably expressing human orexin 1 receptor; [3H]-SB674042 4 nM final; read-out: OR-1 Ki. As to the method:
(§1) The in vitro affinity of the compounds for the human orexin-1 and orexin-2 receptors was determined by competitive radioligand binding using [^3H]SB SB674042 (1-(5-(2-fluoro-phenyl)-2-methyl-thiazol-4-yl)-1-((S)-2-(5-phenyl-(1,3,4)oxadiazol-2-ylmethyl)-pyrrolidin-1-yl)methanone) (Langmead et al., British Journal of Pharmacology 2004, 141:340-346.) and [^3H]EMPA (N-ethyl-2[(6-methoxy-pyridin-3-yl)-(toluene-2-sulfonyl)-amino]-N-pyridin-3-ylmethyl acetamide) (Malherbe et al., British Journal of Pharmacology, 2009, 156(8), 1326-1341), respectively.
Human Orexin 1 Receptor Radioligand Binding Studies
Chinese ovary cells (CHO) stably expressing human orexin 1 receptor (Genebank accession number NM_001526) were grown to confluency in DMEM/F12 (Gibco, Cat #11039), 10% FBS, 1× Pen/Strep, 600 μg/mL G418 media on 150 cm^2 tissue culture plates, washed with 5 mM EDTA in PBS (HyClone Dulbecco's Phoshpate Buffered Saline 1× with Calcium and Magnesium, Cat #SH30264.01, hereafter referred to simply as PBS) and scraped into 50 ml tubes. After centrifugation (2K xG, 10 min at 4° C.), the supernatant was aspirated and the pellets frozen and stored at −80° C. Cells were resuspended in PBS in the presence of 1 tablet of protease inhibitor cocktail (Roche, Cat. #11836145001) per 50 mL. […] Compounds were solubilized in 100% DMSO (Acros Organics, Cat. #61042-1000) and tested over a range of 7 concentrations (from 0.1 nM to 10 μM). The final concentration of DMSO in the reactions is equal to or less than 0.1%. Total and nonspecific binding was determined in the absence and presence of 10 μM (1-(6,8-difluoro-2-methylquinolin-4-yl)-3-[4-(dimethylamino)phenyl]urea, CAS Registry #288150-92-5). The total volume of each reaction is 200 μL (20 μL of diluted compounds, 80 μL of [^3H]-SB674042 diluted in PBS and 100 μL of the cell suspension). Reactions were run for 60 min at room temperature and terminated by filtration through GF/C filter plates (PerkinElmer, Cat. #6005174) presoaked in 0.3% polyethylenimine using the cell harvester (PerkinElmer Filtermate). The plates were washed 3 times by aspirating 30 ml PBS through the plates. Plates were dried in 55° C. oven for 60 min, scintillation fluid was added, and the radioactivity was counted on a Topcount (Packard).

The next experiment deals with human orexin-2 receptor (Homo sapiens (Human), UniProt O43614). Briefly: Human orexin 2 receptor radioligand binding ([3H]-EMPA competition). To be noted: HEK293 cells stably expressing human orexin-2 receptor; [3H]-EMPA 5 nM final; read-out: OR-2 Ki. As to the method:
as §1
Human Orexin 2 Receptor Radioligand Binding Studies
HEK293 stably expressing human orexin-2 receptor (Genebank accession number NM_001526) were grown to confluency in DMEM/F12 (Gibco, Cat #11039), in DMEM, 10% FBS, 1× Pen/Strep, 1× NaPyruvate, 1×HEPES, 600 ug/ml G418 media on 150 cm^2 tissue culture plates, washed with 5 mM EDTA in PBS (HyClone Dulbecco's Phosphate Buffered Saline 1× with Calcium and Magnesium, Cat #SH30264.01, hereafter referred to simply as PBS) and scraped into 50 ml tubes. After centrifugation (2K xG, 10 min at 4° C.), the supernatant was aspirated and the pellets frozen and stored at −80° C. Cells were resuspended in PBS in the presence of 1 tablet of protease inhibitor cocktail (Roche, Cat. #11836145001) per 50 mL. […] Competition binding experiments in 96 well polypropylene plates were performed using [^3H]-EMPA (Moravek Corporation, specific activity=27 Ci/mmol), diluted to a […] concentration in PBS (5 nM final concentration). Compounds were solubilized in 100% DMSO (Acros Organics, Cat. #61042-1000) and tested over a range of 7 concentrations (from 0.1 nM to 10 μM). The final concentration of DMSO in the reactions is equal to or less than 0.1%. Total and nonspecific binding was determined in the absence and presence of 10 μM (N-[2-(3,4-dimethoxyphenyl)ethyl]-N-methylnaphthalene-1-carboxamide, CAS Registry #1089563-88-1). The total volume of each reaction is 200 μL (20 μL of diluted compounds, 80 μL of [^3H]-EMPA diluted in PBS and 100 μL of the cell suspension). Reactions were run for 60 min at room temperature and terminated by filtration through GF/C filter plates (PerkinElmer, Cat. #6005174) presoaked in 0.3% polyethylenimine using the cell harvester (Perkin Elmer Filtermate). The plates were washed 3 times by aspirating 30 ml PBS through the plates. Plates were dried in 55° C. oven for 60 min, scintillation fluid was added, and the radioactivity was counted on a Topcount (Packard).

human orexin 1 receptor, sequence (O43613 whole entry): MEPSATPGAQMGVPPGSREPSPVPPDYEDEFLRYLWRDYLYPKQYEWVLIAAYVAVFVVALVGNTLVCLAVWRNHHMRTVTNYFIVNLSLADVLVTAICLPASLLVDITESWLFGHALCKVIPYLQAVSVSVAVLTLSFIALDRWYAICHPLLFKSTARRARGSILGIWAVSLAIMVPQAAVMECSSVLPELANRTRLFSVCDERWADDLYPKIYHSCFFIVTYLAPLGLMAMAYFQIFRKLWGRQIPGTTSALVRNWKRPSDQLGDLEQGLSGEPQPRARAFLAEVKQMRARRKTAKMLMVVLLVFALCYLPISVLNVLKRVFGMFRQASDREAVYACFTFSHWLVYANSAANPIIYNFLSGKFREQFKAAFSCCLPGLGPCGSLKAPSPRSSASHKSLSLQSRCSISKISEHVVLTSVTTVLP
human orexin-2 receptor, sequence (O43614 whole entry): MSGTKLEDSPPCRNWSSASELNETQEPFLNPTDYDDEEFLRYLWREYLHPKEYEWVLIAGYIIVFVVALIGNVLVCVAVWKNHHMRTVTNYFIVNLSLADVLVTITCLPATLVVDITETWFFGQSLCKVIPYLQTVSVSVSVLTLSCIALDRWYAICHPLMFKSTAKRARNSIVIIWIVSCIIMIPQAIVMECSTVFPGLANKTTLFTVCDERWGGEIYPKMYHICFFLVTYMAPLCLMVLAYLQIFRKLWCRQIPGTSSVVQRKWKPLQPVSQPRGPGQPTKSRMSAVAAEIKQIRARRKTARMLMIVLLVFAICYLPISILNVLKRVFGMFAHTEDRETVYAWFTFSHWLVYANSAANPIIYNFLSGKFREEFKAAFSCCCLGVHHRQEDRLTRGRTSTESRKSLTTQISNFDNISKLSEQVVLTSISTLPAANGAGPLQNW

Turning to `CN(C)c1ccnc(N2C[C@@H]3CCN(C(=O)c4cccc(F)c4-n4nccn4)C[C@@H]32)c1` [Example 144, 2-[(1R,6S)-3-{[3-Fluoro-2-(2H-1,2,3-triazol-2-yl)phenyl]carbonyl}-3,8-diazabicyclo[4.2.0]oct-8-yl]-N,N-dimethylpyridin-4-amine], the Ki – broadly, the dissociation constant of the complex between target and ligand, obtained from inhibition or displacement – at human orexin 1 receptor came out at 10 µM; on human orexin-2 receptor, 2.81 µM.

For `Cc1cnc(N2C[C@@H]3CCN(C(=O)c4ccc(F)cc4-n4nccn4)C[C@@H]32)cn1` [Example 102, (1R,6S)-3-{[4-Fluoro-2-(2H-1,2,3-triazol-2-yl)phenyl]carbonyl}-8-(5-methylpyrazin-2-yl)-3,8-diazabicyclo[4.2.0]octane], the Ki on human orexin 1 receptor amounted to 10 µM; on human orexin-2 receptor, 0.42 µM.

In the case of `Cc1cc(N2C[C@@H]3CCN(C(=O)c4c(F)cccc4-c4ncccn4)C[C@@H]32)nc(C(F)(F)F)n1` [Example 92, (1R,6S)-3-[(2-Fluoro-6-pyrimidin-2-ylphenyl)carbonyl]-8-[6-methyl-2-(trifluoromethyl)pyrimidin-4-yl]-3,8-diazabicyclo[4.2.0]octane], the inhibition constant Ki on human orexin 1 receptor is 0.22 µM; on human orexin-2 receptor, 0.084 µM.

With `O=C(c1cc(F)ccc1-n1nccn1)N1CC[C@H]2CN(c3cnnc(Cl)c3)[C@H]2C1` [Example 87, (1R,6S)-8-(6-Chloropyridazin-4-yl)-3-{[5-fluoro-2-(2H-1,2,3-triazol-2-yl)phenyl]carbonyl}-3,8-diazabicyclo[4.2.0]octane], the results for the Ki at human orexin 1 receptor and on human orexin-2 receptor were not below 10 µM and 1.4 µM, respectively.

For the compound `Cc1cnc(N2C[C@@H]3CCN(C(=O)c4cc(F)ccc4-n4nccn4)C[C@@H]32)cn1` [Example 104, (1R,6S)-3-{[5-Fluoro-2-(2H-1,2,3-triazol-2-yl)phenyl]carbonyl}-8-(5-methylpyrazin-2-yl)-3,8-diazabicyclo[4.2.0]octane], the Ki at human orexin 1 receptor is 3.54 µM; at human orexin-2 receptor, 0.342 µM.

As to `O=C(c1ccccc1-c1ccccc1)N1CC2CN(c3cnc4ccccc4n3)C2C1` (stereo not shown) [Example 48, 2-[3-(Biphenyl-2-ylcarbonyl)-3,6-diazabicyclo[3.2.0]hept-6-yl]quinoxaline], the Ki was 0.258 µM on human orexin 1 receptor and 0.179 µM at human orexin-2 receptor.

As to `Cc1cc(C)nc(N2CC3CN(C(=O)c4ccccc4-n4nccn4)CC32)n1` (stereo not shown) [Example 66, 6-(4,6-Dimethylpyrimidin-2-yl)-3-{[2-(2H-1,2,3-triazol-2-yl)phenyl]carbonyl}-3,6-diazabicyclo[3.2.0]heptane], the Ki amounted to 9.65 µM at human orexin 1 receptor and 0.163 µM at human orexin-2 receptor.

In the case of `COc1ccccc1C(=O)N1CC2CN(c3cnc4ccccc4n3)C2C1` (stereo not shown) [Example 54, 2-{3-[(2-Methoxyphenyl)carbonyl]-3,6-diazabicyclo[3.2.0]hept-6-yl}quinoxaline], the Ki at human orexin 1 receptor is 3.45 µM; at human orexin-2 receptor, 2.42 µM.

As to `Cc1cc(C)nc(N2C[C@@H]3CCN(C(=O)c4cc(F)ccc4-n4nccn4)C[C@@H]32)n1` [Example 41, (1R,6S)-[8-(4,6-Dimethyl-pyrimidin-2-yl)-3,8-diaza-bicyclo[4.2.0]oct-3-yl]-(5-fluoro-2-[1,2,3]triazol-2-yl-phenyl)-methanone], the Ki at human orexin 1 receptor was 0.441 µM.

On to `Cc1cc(N2C[C@@H]3CCN(C(=O)c4cc(F)ccc4-n4nccn4)C[C@@H]32)nc(C(F)(F)F)n1` [Example 42, (1R,6S)-(5-Fluoro-2-[1,2,3]triazol-2-yl-phenyl)-[8-(6-methyl-2-trifluoromethyl-pyrimidin-4-yl)-3,8-diaza-bicyclo[4.2.0]oct-3-yl]-methanone], for which the inhibitory constant (Ki) at human orexin-2 receptor was 0.034 µM.

With `COc1cnc(C)nc1C(=O)N1CC[C@H]2CN(c3nc(C)cc(C)n3)[C@H]2C1` [Example 136, (1R,6S)-8-(4,6-Dimethylpyrimidin-2-yl)-3-[(5-methoxy-2-methylpyrimidin-4-yl)carbonyl]-3,8-diazabicyclo[4.2.0]octane], the Ki at human orexin 1 receptor is 10 µM.

Regarding `CCOc1ccc2ccccc2c1C(=O)N1CC[C@H]2CN(c3nc(C)cc(C)n3)[C@H]2C1` [Example 24, (1R,6S)[8-(4,6-Dimethyl-pyrimidin-2-yl)-3,8-diaza-bicyclo[4.2.0]oct-3-yl]-(2-ethoxy-naphthalen-1-yl)-methanone], the Ki at human orexin-2 receptor amounted to 0.006 µM.

With `O=C(c1cc(F)ccc1-c1ncccn1)N1CC[C@H]2CN(c3cnc4ccccc4n3)[C@H]2C1` [Example 33, (1R,6S)(5-Fluoro-2-pyrimidin-2-yl-phenyl)-(8-quinoxalin-2-yl-3,8-diaza-bicyclo[4.2.0]oct-3-yl)-methanone], at human orexin-2 receptor, the Ki is 0.051 µM.

Regarding `O=C(c1ccccc1-c1cccs1)N1CC[C@H]2CN(c3cnc4ccccc4n3)[C@H]2C1` [Example 4, (1R,6S)(8-Quinoxalin-2-yl-3,8-diaza-bicyclo[4.2.0]oct-3-yl)-(2-thiophen-2-yl-phenyl)-methanone], at human orexin-2 receptor, the Ki stood at 0.007 µM.

As for `Cc1nccnc1N1C[C@@H]2CCN(C(=O)c3cccc(F)c3-n3nccn3)C[C@@H]21` [Example 109, (1R,6S)-3-{[3-Fluoro-2-(2H-1,2,3-triazol-2-yl)phenyl]carbonyl}-8-(3-methylpyrazin-2-yl)-3,8-diazabicyclo[4.2.0]octane], the inhibition constant (Ki) at human orexin-2 receptor was found to be 10 µM.

Turning to `Cc1cc(C)nc(N2C[C@@H]3CCN(C(=O)c4ccccc4-c4ccco4)C[C@@H]32)n1` [Example 2, (1R,6S)[8-(4,6-Dimethyl-pyrimidin-2-yl)-3,8-diaza-bicyclo[4.2.0]oct-3-yl]-(2-furan-2-yl-phenyl)-methanone], the Ki at human orexin-2 receptor came to 0.004 µM.

In the case of `Cc1cc(C)nc(N2C[C@@H]3CCN(C(=O)c4ccccc4-c4ncn[nH]4)C[C@@H]32)n1` [Example 172, (1R,6S)-8-(4,6-Dimethylpyrimidin-2-yl)-3-{[2-(1H-1,2,4-triazol-5-yl)phenyl]carbonyl}-3,8-diazabicyclo[4.2.0]octane], the Ki on human orexin-2 receptor was found to be 0.048 µM.

`Cc1nccnc1N1C[C@@H]2CCN(C(=O)c3cc(F)ccc3-n3nccn3)C[C@@H]21` [Example 107, (1R,6S)-3-{[5-Fluoro-2-(2H-1,2,3-triazol-2-yl)phenyl]carbonyl}-8-(3-methylpyrazin-2-yl)-3,8-diazabicyclo[4.2.0]octane]: at human orexin 1 receptor, the Ki came to 10 µM.

As to `Cc1cc(C)nc(N2C[C@@H]3CCN(C(=O)c4ccccc4-n4nccn4)C[C@@H]32)n1` [Example 25, (1R,6S)-[8-(4,6-Dimethyl-pyrimidin-2-yl)-3,8-diaza-bicyclo[4.2.0]oct-3-yl]-(2-[1,2,3]triazol-2-yl-phenyl)-methanone], the Ki on human orexin 1 receptor amounted to 0.416 µM.

Turning to `Cc1cc(N2C[C@@H]3CCN(C(=O)c4ccc(F)cc4-n4nccn4)C[C@@H]32)nc(N(C)C)n1` [Example 45, (1R,6S)-[8-(2-Dimethylamino-6-methyl-pyrimidin-4-yl)-3,8-diaza-bicyclo[4.2.0]oct-3-yl]-(4-fluoro-2-[1,2,3]triazol-2-yl-phenyl)-methanone], the Ki at human orexin 1 receptor was 0.697 µM.

The values above are taken from US8680275B2, “Fused heterocyclic compounds as orexin receptor modulators” (Janssen Pharmaceutica NV, priority 2009, dated 2014).
